“And” between values parts separate entries of the source, which are not always exact repeats. Identical values can stand only once.
Legend:
Assay type in all cases: cell-based
Propionibacterium acnes [1] = assay: Minimum inhibitory concentration (MIC) determination, Example 6; details: Cutibacterium acnes
Protocol: (§1) The minimal inhibitory concentration (MIC) determination method is as follows. First prepare a colony suspension in 0.9% saline to an OD600 of 0.05 to prepare an inoculum, which corresponds to 10^7 colony-forming units per mL (cfu/mL). The suspension was diluted 20 times in agar-free enhanced Clostridium medium (RCM) to an inoculum of 5*10^5 cfu/mL. Prepare 2-fold serial dilutions of PACL10 or vancomycin with 0.9% saline and add no more than one-tenth of the total culture. Cultures were grown anaerobically at 37° C. for 3 days. The MIC is the lowest concentration of PACL10 or vancomycin at which no growth of P. acnes can be observed with the naked eye. The minimum bactericidal concentration (MBC) was determined by subculturing the above cultures on enhanced Clostridium agar (RCA) plates containing 0.1% Tween-80. MBC is the lowest concentration of PACL10 or vancomycin at which no P. acnes colonies are seen on the enhanced Clostridium agar (RCA) plate.

Propionibacterium acnes [2] = assay: Minimum bactericidal concentration (MBC) determination, Example 6; details: Cutibacterium acnes
Protocol: as §1

Propionibacterium acnes [3] = assay: MIC of selected lysin after single-step purification, Example 8; details: single-step purified lysin
Protocol: Express PACL 10, 390, 391, 392, 403 and 404 according to the method of Examples 1-4, and perform the following single-step purification: put Escherichia coli BL21 (DE3) containing each recombinant expression plasmid in the self-induction medium incubate at 37° C., 300 rpm for 3 hours, then at 18° C., 300 rpm for 16-18 hours. Cells were collected by centrifugation and lysed by homogenizatoin under high pressure. Clarified lysate from 1 L of E. coli culture medium expressing the protein of interest was loaded onto a 26 mm/200 mm column containing 70 mL of purification resin. The lysin was purified according to the conditions in Table 8-1, and the purity determination of the lyase after single-step purification is shown in FIG. 5. These lysin are used to determine the minimal inhibitory concentration (MIC).
The minimal inhibitory concentration (MIC) determination method is as follows. Propionibacterium acnes is streaked on Fortified Clostridium Agar (Fortified Clostridium Medium RCM with 1.5% agar, RCM was prepared according to the revised recipe, per liter—10 g acid hydrolyzed casein, 10 g beef extract, 3 g yeast extract, 5 g D—glucose, 5 g sodium chloride, 3 g sodium acetate, 0.5 g L-cysteine hydrochloride). Plates were incubated anaerobically at 37° C. for 72 hours. The inoculum for MIC determination was first prepared by resuspending single clones from RCA in 0.9% saline to an OD600 of 0.05, corresponding to 10^7 colony-forming units per milliliter (cfu/mL). The suspension was diluted 20-fold in RCM to an inoculum of 5*10^5 cfu/mL. Two-fold serial dilutions of each lyase were prepared in 0.9% saline and added not to exceed one-tenth of the total culture volume. Cultures were grown anaerobically at 37° C. for 48-72 hours. The MIC is the lowest concentration of lyase at which no growth of P. acnes can be observed with the naked eye.

**Q.** What does the source list for CN[C@H](CC(C)C)C(=O)N[C@H]1C(=O)N[C@@H](CC(N)=O)C(=O)N[C@H]2C(=O)N[C@H]3C(=O)N[C@H](C(=O)N[C@H](C(=O)O)c4cc(O)cc(O)c4-c4cc3ccc4O)[C@H](O)c3ccc(c(Cl)c3)Oc3cc2cc(c3O[C@@H]2O[C@H](CO)[C@@H](O)[C@H](O)[C@H]2O[C@H]2C[C@](C)(N)[C@H](O)[C@H](C)O2)Oc2ccc(cc2Cl)[C@H]1O [Vancomycin, reference compound]?
**A.** MIC (Propionibacterium acnes [1]; clade IA1, strain 1): 0.5 µg/mL and 0.337 µM; MIC (Propionibacterium acnes [1]; clade IA1, strain 5): 1 µg/mL and 0.673 µM; MIC (Propionibacterium acnes [1]; clade IA1, strain 7): 0.5 µg/mL and 0.337 µM; MIC (Propionibacterium acnes [1]; clade IA1, strain 15): 1 µg/mL and 0.673 µM; MIC (Propionibacterium acnes [1]; clade IA1, strain 27): 1 µg/mL and 0.673 µM; MIC (Propionibacterium acnes [1]; clade IA2, strain 10): 0.5 µg/mL and 0.337 µM; MIC (Propionibacterium acnes [1]; clade IA2, strain 14): 0.5 µg/mL and 0.337 µM; MIC (Propionibacterium acnes [1]; clade IA2, strain 17): 0.5 µg/mL and 0.337 µM; MIC (Propionibacterium acnes [1]; clade IA2, strain 31): 0.5 µg/mL and 0.337 µM; MIC (Propionibacterium acnes [1]; clade IA2, strain 33A): 0.5 µg/mL and 0.337 µM; MIC (Propionibacterium acnes [1]; clade IB, strain 13): 1 µg/mL and 0.673 µM; MIC (Propionibacterium acnes [1]; clade II, strain 34A): 0.5 µg/mL and 0.337 µM; MBC (Propionibacterium acnes [2]; clade IA1, strain 1): 0.5 µg/mL and 0.337 µM; MBC (Propionibacterium acnes [2]; clade IA1, strain 5): 1 µg/mL and 0.673 µM; MBC (Propionibacterium acnes [2]; clade IA1, strain 7): 1 µg/mL and 0.673 µM; MBC (Propionibacterium acnes [2]; clade IA1, strain 15): 1 µg/mL and 0.673 µM; MBC (Propionibacterium acnes [2]; clade IA1, strain 27): 1 µg/mL and 0.673 µM; MBC (Propionibacterium acnes [2]; clade IA2, strain 10): 1 µg/mL and 0.673 µM; MBC (Propionibacterium acnes [2]; clade IA2, strain 14): 1 µg/mL and 0.673 µM; MBC (Propionibacterium acnes [2]; clade IA2, strain 17): 0.5 µg/mL and 0.337 µM; MBC (Propionibacterium acnes [2]; clade IA2, strain 31): 0.5 µg/mL and 0.337 µM; MBC (Propionibacterium acnes [2]; clade IA2, strain 33A): 1 µg/mL and 0.673 µM; MBC (Propionibacterium acnes [2]; clade IB, strain 13): 1 µg/mL and 0.673 µM; MBC (Propionibacterium acnes [2]; clade II, strain 34A): 0.5 µg/mL and 0.337 µM

B1: PACL404: chimeric lysin, amino acid sequence SEQ ID NO: 272 (protein)
chain: MTFIQAAHHSSGSNLPPTRVVIHATCPEMGFPKASAKGRAVSTARYFQSASSGGSAHYVVDIGETVQCLGENVIAWHAPPNAHSLGIEICADGGSATSFSNPKVRYTRAQWLSPQVWPAVLRAAALTRKMCSKYGIPVVKLSASDLKAGKKGICGHVDVSNAFHQSDHDDPGPDFPWAEFMAAVKGGTTTQEDEDEMKEAGGPGQQDTKPSVPTPSLTEIGDQDMNGCYYNLNSKTRTYLIFDSRSGFYHEFSQGNGNGPMSPDYVNPIAKGWDTGSWPAISPGHAKVLKAALDKVRKGI
modifications: PACL404
**Q.** B1 was tested. Which “MIC of selected lyases relative to Propionibacterium acnes” value (Propionibacterium acnes [3]; clade IA1, strain 1) did it give?
**A.** 8 µg/mL

**Q.** And the “MIC of selected lyases relative to Propionibacterium acnes” value (Propionibacterium acnes [3]; clade IA1, strain 5)?
**A.** 16 µg/mL

**Q.** And the “MIC of selected lyases relative to Propionibacterium acnes” value (Propionibacterium acnes [3]; clade IA1, strain 7)?
**A.** 16 µg/mL

**Q.** What about the “MIC of selected lyases relative to Propionibacterium acnes” value (Propionibacterium acnes [3]; clade IA2, strain 10) of the same molecule?
**A.** 16 µg/mL

**Q.** And the “MIC of selected lyases relative to Propionibacterium acnes” value (Propionibacterium acnes [3]; clade IA2, strain 17)?
**A.** 8 µg/mL

**Q.** And the “MIC of selected lyases relative to Propionibacterium acnes” value (Propionibacterium acnes [3]; clade IA2, strain 33)?
**A.** 8 µg/mL

**Q.** And the “MIC of selected lyases relative to Propionibacterium acnes” value (Propionibacterium acnes [3]; clade II, strain 34)?
**A.** 8 µg/mL

Source: patent US20250288652A1, “BACTERIOPHAGE LYSINE, CHIMERA THEREOF AND APPLICATION THEREOF” (priority 2021, published 2025)
